Assays:
[1] = system: mmp9; experiment: qPCR mmp9 expression in zebrafish larvae; format: in vivo, zebrafish (Danio rerio); settings: Example 2, wounded larvae
Experimental: To determine mRNA levels of specific genes in zebrafish, 3 dpf larvae were used (wounded and non-wounded) and after 6 h of chemical treatments (2 h pre-wounding, 4 h post-wounding), as indicated. Per sample, groups of 15 larvae were collected in TRIzol reagent (Thermo Fisher Scientific, Waltham, MA, USA), and total RNA was isolated using the miRNeasy mini kit (Qiagen, Hilden, Germany). For similar experiments in Hela cells, cells were seeded in 6 well plates, and after 6 h of chemical treatment, the cells were removed from the wells using TRIzol reagent, and total RNA was isolated using the miRNeasy mini kit according to the manufacturer's instructions. The RNA samples were DNAse-treated utilizing the DNA-free™ DNA Removal Kit (Thermo Fisher Scientific). The cDNA synthesis was performed using the iScript cDNA synthesis kit (Bio-Rad Laboratories, Hercules, CA, USA) using 1 μg of RNA per sample. For the PCR reactions, 10 μM of forward and 10 μM of reverse primer, 12.5 μl of iQ SYBR Green Supermix (Bio-Rad), and 2 μl of cDNA were added to the qPCR reaction mixture. […] Cycle threshold values (Ct values, i.e. the cycle numbers at which a threshold value of the fluorescence intensity was reached) were determined for each sample. […] The fold change per sample (compared to the respective control group) was calculated using the ΔΔCt method.

[2] = molecular target: T1, GR (Homo sapiens, UniProt P04150); experiment: PolarScreen Glucocorticoid Receptor competitive binding assay; set-up: followed by GR Full Length (partially purified receptor in storage buffer); purchased ThermoFisher Scientific
T1 sequence (P04150 1-777): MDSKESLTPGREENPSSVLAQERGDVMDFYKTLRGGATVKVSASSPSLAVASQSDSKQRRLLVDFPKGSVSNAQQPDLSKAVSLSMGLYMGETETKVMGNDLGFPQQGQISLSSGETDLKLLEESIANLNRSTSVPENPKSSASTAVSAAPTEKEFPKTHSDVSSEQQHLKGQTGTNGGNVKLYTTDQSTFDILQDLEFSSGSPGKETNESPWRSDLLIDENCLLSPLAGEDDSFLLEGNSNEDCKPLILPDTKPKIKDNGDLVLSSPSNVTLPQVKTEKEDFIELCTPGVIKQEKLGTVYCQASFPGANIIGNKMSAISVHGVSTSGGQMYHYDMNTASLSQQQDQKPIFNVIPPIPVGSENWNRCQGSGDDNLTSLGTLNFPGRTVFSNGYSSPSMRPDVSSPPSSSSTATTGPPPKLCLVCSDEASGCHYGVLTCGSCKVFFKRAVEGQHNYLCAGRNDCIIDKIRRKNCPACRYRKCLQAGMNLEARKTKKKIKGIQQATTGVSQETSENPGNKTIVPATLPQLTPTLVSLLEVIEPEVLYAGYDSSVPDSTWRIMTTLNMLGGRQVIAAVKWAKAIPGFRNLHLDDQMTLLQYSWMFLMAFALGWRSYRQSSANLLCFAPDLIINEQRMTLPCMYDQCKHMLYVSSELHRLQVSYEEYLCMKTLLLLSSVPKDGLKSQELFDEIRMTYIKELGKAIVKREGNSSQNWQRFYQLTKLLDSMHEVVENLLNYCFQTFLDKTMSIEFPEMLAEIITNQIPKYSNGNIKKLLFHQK
Experimental: To determine the relative binding affinities of the different compounds for the human GR in vitro, the PolarScreen™ Glucocorticoid Receptor Competitor Assay Kit (ThermoFisher Scientific, Waltham, MA, USA) was used following the manufacturer's instructions. Briefly, test compounds were first dissolved in DMSO to a 10 mM stock concentration and further diluted in GR buffer (100 mM potassium phosphate (pH 7.4), 200 mM Na2MoO4, 1 mM EDTA, and 20% DMSO). Serial dilutions of the compounds were transferred to a Corning® black 384-well plate and Fluormone GS red™ was added, followed by GR Full Length (partially purified receptor in storage buffer). The plate was incubated for 4 h at RT in the dark and fluorescence polarization was measured with a CLARIOStar Microplate Reader (BMG Labtech, Ortenberg, Germany). Obtained values were normalized to the assay maximum (no ligand) and minimum control (10 µM dexamethasone), and relative percentages of polarization were determined. Dose-response curves were fitted enabling the calculations of IC50 values for each compound.

Compound	mmp9 expression [1]	IC50 ([2]; fluorescence polarization, 4 h at RT) [µM]	relative GR binding affinity, times lower than beclomethasone ([2]; vs beclomethasone)
C[C@H]1C[C@H]2[C@@H]3CCC4=CC(=O)C=C[C@]4(C)[C@@]3(Cl)[C@@H](O)C[C@]2(C)[C@@]1(O)C(=O)CO [beclomethasone, reference compound]	suppressed the expression levels of il1b, il6 and mmp9, similarly to Bec	–	–
CC(C)=CCC[C@](C)(O[C@@H]1O[C@H](CO)[C@@H](O)[C@H](O)[C@H]1O)[C@H]1CC[C@]2(C)[C@@H]1[C@H](O)C[C@@H]1[C@@]3(C)CC[C@H](O)C(C)(C)[C@@H]3[C@@H](O[C@@H]3O[C@H](CO)[C@@H](O)[C@H](O)[C@H]3O)C[C@]12C [Rg1, (3β,6α, 12β)-3,12-Dihydroxydammar-24-ene-6,20-diyl bis-β-D-glucopyranoside]	–	22	~ 4,000 times

Source: US20260306525A1, “COMBINATION THERAPY GLUCOCORTICOIDS AND GINSENOSIDE” (FYTAGORAS B.V., priority 2023, published 2026)
